The assay concerns the target T1, human FXR (NR1H4) (Homo sapiens, UniProt Q96RI1).
T1 construct: host or cells: CHO (Chinese hamster ovary) reporter cells
T1 sequence (Q96RI1 1-486): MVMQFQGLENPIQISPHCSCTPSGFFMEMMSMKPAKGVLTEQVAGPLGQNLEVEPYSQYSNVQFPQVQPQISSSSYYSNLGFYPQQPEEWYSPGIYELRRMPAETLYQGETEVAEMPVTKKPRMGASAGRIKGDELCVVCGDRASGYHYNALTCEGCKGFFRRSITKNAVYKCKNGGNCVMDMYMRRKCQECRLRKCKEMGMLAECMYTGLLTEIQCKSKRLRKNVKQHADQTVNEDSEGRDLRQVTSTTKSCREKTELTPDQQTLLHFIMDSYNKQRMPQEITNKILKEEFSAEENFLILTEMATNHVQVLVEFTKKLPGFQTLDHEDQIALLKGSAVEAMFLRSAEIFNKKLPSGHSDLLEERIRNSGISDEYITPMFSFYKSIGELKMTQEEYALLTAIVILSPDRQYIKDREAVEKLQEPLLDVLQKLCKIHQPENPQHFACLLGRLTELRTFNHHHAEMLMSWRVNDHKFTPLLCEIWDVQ
The assay can be described thus: Human FXR (NR1H4) Assay (Gal4 promoter driven luciferase reporter, Indigo Bioscience kit IB00601). As to Efficacy (%): normalized to CDCA set as 100%. Type of assay: cell-based. The conditions noted are these: for EC50: CHO reporter cells expressing human NR1H4, luciferase, 22 hours incubation, potency ranges; for Emax: read-out: Efficacy (%). An excerpt:
Human FXR (NR1H4) Assay Determination of a ligand mediated Gal4 promoter driven transactivation to quantify ligand binding mediated activation of FXR. FXR Reporter Assay kit purchased from Indigo Bioscience (Catalogue number: IB00601) to determine the potency and efficacy of compound developed by Enanta that can induce FXR activation. The principle application of this reporter assay system is to quantify functional activity of human FXR. The assay utilizes non-human mammalian cells, CHO (Chinese hamster ovary) cells engineered to express human NR1H4 protein (referred to as FXR). Reporter cells also incorporate the cDNA encoding beetle luciferase which catalyzes the substrates and yields photon emission. Luminescence intensity of the reaction is quantified using a plate-reading luminometer, Envision. Reporter Cells include the luciferase reporter gene functionally linked to an FXR responsive promoter. Thus, quantifying changes in luciferase expression in the treated reporter cells provides a sensitive surrogate measure of the changes in FXR activity. […] The assay is according to the manufacturer's instructions. […] Retrieve Reporter Cells from −80° C. storage. Perform a rapid thaw of the frozen cells by transferring a 10 ml volume of 37° C. cell recovery medium into the tube of frozen cells. Recap the tube of Reporter Cells and immediately place it in a 37° C. water bath for 5-10 minutes. Retrieve the tube of Reporter Cell Suspension from the water bath. Sanitize the outside surface of the tube with a 70% alcohol swab, and then transfer it into the cell culture hood. Dispense 90 μl of cell suspension into each well of the 96-well Assay Plate. Transfer the plate into 37° C. incubator, allowing the cells adherent to the bottom of the well. Dilute compounds in Dilution Plate (DP), and administrate to cells at Assay Plate (AP). DMSO content of the samples was kept at 0.2%. Cells were incubated for additional 22 hours before luciferase activities were measured. Thirty minutes before intending to quantify FXR activity, remove Detection Substrate and Detection Buffer from the refrigerator and place them in a low-light area so that they may equilibrate to room temperature. Remove the plate's lid and discard all media contents by ejecting it into an appropriate waste container. Gently tap the inverted plate onto a clean absorbent paper towel to remove residual droplets. Cells will remain tightly adhered to well bottoms. Add 100 μl of luciferase detection reagent to each well of the assay plate. Allow the assay plate to rest at room temperature for at least 5 minutes following the addition of LDR. Set the instrument (Envision) to perform a single 5 second “plate shake” prior to reading the first assay well. Read time may be 0.5 second (500 mSec) per well.
On the technique in general: A reporter such as luciferase makes a cellular process visible.

Bounds are passed on as bounds.

What is called EC50 is the concentration giving half of the maximal effect. A higher EC50 goes with a less potent agent. As to `CC(C)Oc1cc(C(=O)NS(=O)(=O)C2CC2)cc2sc(O[C@@H]3CO[C@H]4[C@@H]3OC[C@@H]4OCc3c(-c4c(Cl)cccc4Cl)noc3C3CC3)nc12` [Example 3, 2-(((3R,3aR,6S,6aR)-6-((5-cyclopropyl-3-(2,6-dichlorophenyl)isoxazol-4-yl)methoxy)hexahydrofuro[3,2-b]furan-3-yl)oxy)-N-(cyclopropylsulfonyl)-4-isopropoxybenzo[d]thiazole-6-carboxamide], the EC50 fell in the range of 200 to 1000 nM and the Emax turned out to be 33.5%.

With `O=C(O)c1ccc2nc(O[C@@H]3CO[C@H]4[C@@H]3OC[C@@H]4OCc3c(-c4c(Cl)cccc4Cl)noc3C3CC3)sc2c1` [Example 4, 2-(((3R,3aR,6S,6aR)-6-((5-cyclopropyl-3-(2,6-dichlorophenyl)isoxazol-4-yl)methoxy)hexahydrofuro[3,2-b]furan-3-yl)oxy)benzo[d]thiazole-6-carboxylic acid], the EC50 fell in the range of 200 to 1000 nM and the Emax worked out at 40%.

As to `O=C(O)c1cc(F)c2nc(O[C@@H]3CO[C@H]4[C@@H]3OC[C@H]4OCc3c(-c4c(Cl)cccc4Cl)noc3C3CC3)sc2c1` [Example 5, 2-(((3R,3aR,6R,6aR)-6-((5-cyclopropyl-3-(2,6-dichlorophenyl)isoxazol-4-yl)methoxy)hexahydrofuro[3,2-b]furan-3-yl)oxy)-4-fluorobenzo[d]thiazole-6-carboxylic acid], the EC50 was 30 to 200 nM and the Emax is 55%.

As to `O=C(O)c1cc(F)c2nc(O[C@@H]3CO[C@H]4[C@@H]3OC[C@H]4OCc3c(-c4ccccc4OC(F)(F)F)noc3C3CC3)sc2c1` [Example 6], the EC50 lay within 30 to 200 nM and the Emax stood at 56%.

Consider `CC1(S(=O)(=O)NC(=O)c2ccc3nc(O[C@@H]4CO[C@H]5[C@@H]4OC[C@H]5OCc4c(-c5c(Cl)cccc5Cl)noc4C4CC4)sc3c2)CC1` [Example 8, 2-(((3R,3aR,6R,6aR)-6-((5-cyclopropyl-3-(2,6-dichlorophenyl)isoxazol-4-yl)methoxy)hexa hydrofuro[3,2-b]furan-3-yl)oxy)-N-((1-methylcyclopropyl)sulfonyl)benzo-[d]thiazole-6-carboxamide], for which the concentration for a half-maximal effect (EC50) lay within 200 to 1000 nM and the Emax worked out at 20%.

For `O=C(NS(=O)(=O)C1CC1)c1ccc2nc(O[C@@H]3CO[C@H]4[C@@H]3OC[C@H]4OCc3c(-c4c(Cl)cccc4Cl)noc3C3CC3)sc2c1` [Example 9], the EC50 fell in the range of 200 to 1000 nM and the Emax worked out at 5.5%.

`CC(C)Oc1cc(C(=O)NS(=O)(=O)N2CCCC2)cc2sc(O[C@@H]3CO[C@H]4[C@@H]3OC[C@H]4OCc3c(-c4c(Cl)cccc4Cl)noc3C3CC3)nc12` [Example 10]: the EC50 is < 30 nM and the Emax was determined as 103%.

Turning to `CC(C)Oc1cc(C(=O)NS(=O)(=O)C2CC2)cc2sc(O[C@@H]3CO[C@H]4[C@@H]3OC[C@H]4OCc3c(-c4c(Cl)cccc4Cl)noc3C3CC3)nc12` [Example 11], the EC50 lay within 30 to 200 nM and the Emax was determined as 57%.

Consider `CC(C)Oc1cc(C(=O)NS(=O)(=O)C2(C)CC2)cc2sc(O[C@@H]3CO[C@H]4[C@@H]3OC[C@H]4OCc3c(-c4c(Cl)cccc4Cl)noc3C3CC3)nc12` [Example 12], for which the EC50 was in the range of 30 to 200 nM and the Emax was 70%.

For the compound `CC(C)Oc1cc(C(=O)NS(=O)(=O)N2CCCCC2)cc2sc(O[C@@H]3CO[C@H]4[C@@H]3OC[C@H]4OCc3c(-c4c(Cl)cccc4Cl)noc3C3CC3)nc12` [Example 13], the EC50 was < 30 nM and the Emax turned out to be 96.5%.

For `O=C(O)c1ccc2nc(O[C@@H]3CO[C@H]4[C@@H]3OC[C@H]4OCc3c(-c4c(Cl)cccc4Cl)noc3C3CC3)sc2c1` [Example 14], the EC50 lay in the range of 30 to 200 nM and the Emax was 67.5%.

On to `O=C(O)c1ccc2nc(O[C@@H]3CO[C@H]4[C@@H]3OC[C@H]4OCc3c(-c4c(Cl)cccc4Cl)noc3C3CC3)ccc2c1` [Example 16], for which the EC50 was 30 to 200 nM and the Emax was 85%.

Take `CC(C)Oc1cc(C(=O)O)cc2sc([C@@]3(O)CO[C@@H]4[C@H](OCc5c(-c6c(Cl)cccc6Cl)noc5C5CC5)CO[C@@H]43)nc12` [Example 17]: the EC50 is > 1000 nM and the Emax worked out at 9%.

As to `CC(C)Oc1cc(C(=O)O)cc2sc([C@]3(F)CO[C@@H]4[C@H](OCc5c(-c6c(Cl)cccc6Cl)noc5C5CC5)CO[C@@H]43)nc12` [Example 18], the EC50 is 200 to 1000 nM and the Emax was determined as 45%.

With `CC(C)Oc1cc(C(=O)O)cc2sc(N[C@@H]3CO[C@H]4[C@@H]3OC[C@H]4OCc3c(-c4c(Cl)cccc4Cl)noc3C3CC3)nc12` [Example 19], the EC50 is 200 to 1000 nM and the Emax amounted to 82.3%.

Regarding `CC(C)Oc1cc(C(=O)O)cc2sc(N3CCN4C[C@@H](OCc5c(-c6c(Cl)cccc6Cl)noc5C5CC5)C[C@@H]4C3)nc12` [Example 20, 2-((7S,8aR)-7-((5-cyclopropyl-3-(2,6-dichlorophenyl)isoxazol-4-yl)methoxy)hexahydropyrrolo[1,2-a]pyrazin-2(1H)-yl)-4-isopropoxybenzo[d]thiazole-6-carboxylic acid], the EC50 is 200 to 1000 nM and the Emax worked out at 44%.

Take `CC(C)Oc1cc(C(=O)O)cc2sc(N3CCN4C[C@H](OCc5c(-c6c(Cl)cccc6Cl)noc5C5CC5)C[C@H]4C3)nc12` [Example 21]: the EC50 lay in the range of 30 to 200 nM and the Emax came to 72%.

`CC(C)Oc1cc(C(=O)O)cc2sc(N3CCN4C[C@H](OCc5c(-c6c(Cl)cccc6Cl)noc5C5CC5)C[C@@H]4C3)nc12` [Example 22, 2-((7R,8aR)-7-((5-cyclopropyl-3-(2,6-dichlorophenyl)isoxazol-4-yl)methoxy)hexahydropyrrolo[1,2-a]pyrazin-2(1H)-yl)-4-isopropoxybenzo[d]thiazole-6-carboxylic acid]: the EC50 lay within 30 to 200 nM and the Emax was 82%.

In the case of `CC(C)Oc1cc(C(=O)O)cc2sc(O[C@@H]3CO[C@H]4[C@@H]3OC[C@H]4OCc3c(-c4ccccc4OC(F)(F)F)noc3C3CC3)nc12` [Example 23], the EC50 is < 30 nM and the Emax stood at 103%.

As to `CC(C)Oc1cc(C(=O)NS(=O)(=O)C2(C)CC2)cc2sc(O[C@@H]3CO[C@H]4[C@@H]3OC[C@H]4OCc3c(-c4ccccc4OC(F)(F)F)noc3C3CC3)nc12` [Example 24], the EC50 was in the range of 30 to 200 nM and the Emax stood at 78%.

As to `CC(C)Oc1cc(C(=O)NS(=O)(=O)C2CC2)cc2sc(O[C@@H]3CO[C@H]4[C@@H]3OC[C@H]4OCc3c(-c4ccccc4OC(F)(F)F)noc3C3CC3)nc12` [Example 25], the EC50 is 30 to 200 nM and the Emax came out at 66%.

As to `CC(C)Oc1cc(C(=O)O)cc2sc(N3C[C@H]4[C@@H](OCc5c(-c6c(Cl)cccc6Cl)noc5C5CC5)CO[C@H]4C3)nc12` [Example 26], the EC50 was 200 to 1000 nM and the Emax was found to be 7%.

With `CC(C)Oc1cc(C(=O)O)cc2sc(N3C[C@H]4C[C@@H](NCc5c(-c6c(Cl)cccc6Cl)noc5C5CC5)C[C@H]4C3)nc12` [Example 28], the EC50 was 200 to 1000 nM and the Emax turned out to be 57%.

For `CC(C)Oc1cc(C(=O)O)cc2sc(N3CCN4C(=O)[C@@H](OCc5c(-c6c(Cl)cccc6Cl)noc5C5CC5)C[C@@H]4C3)nc12` [Example 29], the EC50 was > 1000 nM and the Emax was 21%.

As to `CC(C)Oc1cc(C(=O)O)cc2sc(N3CCN4C(=O)[C@H](OCc5c(-c6c(Cl)cccc6Cl)noc5C5CC5)C[C@H]4C3)nc12` [Example 30], the EC50 lay in the range of 30 to 200 nM and the Emax came to 70%.

Consider `CC(C)Oc1cc(C(=O)O)cc2sc(N3CCN4C(=O)[C@@H](OCc5c(-c6c(Cl)cccc6Cl)noc5C5CC5)C[C@H]4C3)nc12` [Example 31], for which the EC50 lay in the range of 30 to 200 nM and the Emax worked out at 110%.
